Reference: patent US20230072421A1, “TARGETED RADIOPHARMACEUTICALS FOR THE DIAGNOSIS AND TREATMENT OF PROSTATE CANCER” (Bayer AS, priority 2019, published 2023)

Target: T1, PSMA-expressing LNCaP cells (Homo sapiens, UniProt Q04609)
T1 construct: PSMA-expressing LNCaP cells; endogenous in cells; host or cells: LNCaP
Assay: Binding competition assay against 3H-PSMA-617 on LNCaP cells
Details: for remaining activity at 0.01 µM / remaining activity at 0.1 µM: LNCaP cells, 10 nM 3H-PSMA-617, 2 h at 37° C., triplicates; for remaining activity at 0.01 µM: competing non-radiolabeled compound 10 nM; for remaining activity at 0.1 µM: competing non-radiolabeled compound 100 nM; for competition against 3H-PSMA-617 on PSMA-expressing LNCaP cells (in words): comparison between examples
How it was run: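 Compounds added to LNCaP cells in growth medium, 2 h at 37 °C, 5% CO2. After two ice-cold PBS washes, cells lysed in 0.3 M NaOH and bound radioactivity measured by liquid scintillation counting.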

T1 sequence (Q04609 whole entry): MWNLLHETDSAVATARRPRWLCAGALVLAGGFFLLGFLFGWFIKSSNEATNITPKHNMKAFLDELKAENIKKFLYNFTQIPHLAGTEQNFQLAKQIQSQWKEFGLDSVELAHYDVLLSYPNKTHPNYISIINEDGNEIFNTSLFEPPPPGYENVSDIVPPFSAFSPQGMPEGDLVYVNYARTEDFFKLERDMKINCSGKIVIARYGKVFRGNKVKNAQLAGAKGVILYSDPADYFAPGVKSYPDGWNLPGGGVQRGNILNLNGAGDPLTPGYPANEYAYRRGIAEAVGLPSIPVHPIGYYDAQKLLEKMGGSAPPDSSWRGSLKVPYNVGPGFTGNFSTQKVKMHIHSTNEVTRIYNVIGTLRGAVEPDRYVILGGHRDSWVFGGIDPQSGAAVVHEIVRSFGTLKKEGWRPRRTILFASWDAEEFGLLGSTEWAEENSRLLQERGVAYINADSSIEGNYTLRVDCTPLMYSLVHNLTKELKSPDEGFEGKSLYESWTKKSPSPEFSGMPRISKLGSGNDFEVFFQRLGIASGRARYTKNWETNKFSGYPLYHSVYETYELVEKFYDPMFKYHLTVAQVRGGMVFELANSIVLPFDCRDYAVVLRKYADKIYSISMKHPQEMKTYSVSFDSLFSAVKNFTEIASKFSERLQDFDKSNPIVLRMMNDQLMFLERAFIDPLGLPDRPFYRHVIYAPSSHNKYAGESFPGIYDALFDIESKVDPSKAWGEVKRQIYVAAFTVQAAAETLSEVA

Row | SMILES | remaining activity at 0.01 µM [%] | remaining activity at 0.1 µM [%] | competition against 3H-PSMA-617 on PSMA-expressing LNCaP cells (in words)
1 | NCc1ccc(C(=O)N[C@@H](Cc2ccc3ccccc3n2)C(=O)NCCCC[C@H](NC(=O)N[C@@H](CCC(=O)O)C(=O)O)C(=O)O)nc1 [Example 34-A, N^6—{N-[5-(aminomethyl)pyridine-2-carbonyl]-3-(quinolin-2-yl)-L-alanyl}-N^2-{[(1S)-1,3-dicarboxypropyl]carbamoyl}-L-lysine] | 50 | 9 | improved competition
2 | O=C(O)CC[C@H](NC(=O)N[C@@H](CCCCNC(=O)[C@H](Cc1ccc2ccccc2n1)NC(=O)c1ccc(CNC(=O)CN2CCN(CC(=O)O)CCN(CC(=O)O)CCN(CC(=O)O)CC2)cn1)C(=O)O)C(=O)O [Example 34-B, N^6-{3-(quinolin-2-yl)-N-[5-({2-[4,7,10-tris(carboxymethyl)-1,4,7,10-tetraazacyclododecan-1-yl]acetamido}methyl)pyridine-2-carbonyl]-L-alanyl}-N^2-{[(1S)-1,3-dicarboxypropyl]carbamoyl}-L-lysine] | 43 | 6 | improved competition
3 | CNCC[C@H]1CC[C@H](C(=O)N[C@H](Cc2cc(OC)c3ccccc3c2)C(=O)NCCCC[C@H](NC(=O)N[C@@H](CCC(=O)O)C(=O)O)C(=O)O)CC1 [Example 35-A, (3R,10S,14S)-3-[(4-methoxynaphthalen-2-yl)methyl]-1-{(1r,4S)-4-[2-(methylamino)ethyl]cyclohexyl}-1,4,12-trioxo-2,5,11,13-tetraazahexadecane-10,14,16-tricarboxylic acid] | 113 | 60 | –
4 | NC[C@H]1CC[C@H](C(=O)N[C@@H](Cc2cc3ccccc3cn2)C(=O)NCCCC[C@H](NC(=O)N[C@@H](CCC(=O)O)C(=O)O)C(=O)O)CC1 [Example 36-A, N^6—{N-[(1r,4S)-4-(aminomethyl)cyclohexane-1-carbonyl]-3-(isoquinolin-3-yl)-L-alanyl}-N^2-{[(1S)-1,3-dicarboxypropyl]carbamoyl}-L-lysine] | 98 | 73 | –
5 | O=C(O)CC[C@H](NC(=O)N[C@@H](CCCCNC(=O)[C@H](Cc1cc2ccccc2cn1)NC(=O)[C@H]1CC[C@H](CNC(=O)CN2CCN(CC(=O)O)CCN(CC(=O)O)CCN(CC(=O)O)CC2)CC1)C(=O)O)C(=O)O [Example 36-B, N^6-{3-(isoquinolin-3-yl)-N-[(1r,4S)-4-({2-[4,7,10-tris(carboxymethyl)-1,4,7,10-tetraazacyclododecan-1-yl]acetamido}methyl)cyclohexane-1-carbonyl]-L-alanyl}-N^2-{[(1S)-1,3-dicarboxypropyl]carbamoyl}-L-lysine] | 92 | 29 | –
6 | CNc1cc(C[C@@H](NC(=O)[C@H]2CC[C@H](CN)CC2)C(=O)NCCCC[C@H](NC(=O)N[C@@H](CCC(=O)O)C(=O)O)C(=O)O)cc2ccccc12 [Example 37-A, (3R,10S,14S)-1-[(1r,4S)-4-(aminomethyl)cyclohexyl]-3-{[4-(methylamino)naphthalen-2-yl]methyl}-1,4,12-trioxo-2,5,11,13-tetraazahexadecane-10,14,16-tricarboxylic acid] | 145 | 75 | –
7 | CNc1cc(C[C@@H](NC(=O)[C@H]2CC[C@H](CNC(=O)CN3CCN(CC(=O)O)CCN(CC(=O)O)CCN(CC(=O)O)CC3)CC2)C(=O)NCCCC[C@H](NC(=O)N[C@@H](CCC(=O)O)C(=O)O)C(=O)O)cc2ccccc12 [Example 37-B, (3R,10S,14S)-3-{[4-(methylamino)naphthalen-2-yl]methyl}-1,4,12-trioxo-1-[(1r,4S)-4-({2-[4,7,10-tris(carboxymethyl)-1,4,7,10-tetraazacyclododecan-1-yl]acetamido}methyl)cyclohexyl]-2,5,11,13-tetraazahexadecane-10,14,16-tricarboxylic acid] | 55 | 11 | –
